Assay results as given in patent US20260078120A1, “SUBSTITUTED PYRIDOPYRIMIDINONES” (MIRATI THERAPEUTICS, INC., priority 2022, published 2026).
Like-named read-outs stand apart in the source and are kept apart here.

Key:
[1] = system: T47D (PI3Kα H1047R mutant) cells; assay: CellTiter-Glo 2.0 luminescent cell viability assay, 72 hours, T47D cells; assay type: cell-based; settings: T47D (PI3Kα H1047R mutant) cells, CellTiter-Glo, approximately 72 hours, read-out: T47D (H1047R mutant) Viability IC50
Summary of the method: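 Viability was measured by CellTiter-Glo 2.0 luminescence after approximately 72 h of compound exposure at 37° C. Plating was 1000 cells per well the day before dosing, with ten 1:4 dilutions from a 10 µM top concentration. Values as percent of vehicle were fitted by variable-slope log(inhibitor) regression to give IC50.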

[2] = system: SKBR3 (PI3Kα wild type) cells; assay: CellTiter-Glo 2.0 luminescent cell viability assay, 72 hours, SKBR3 cells; assay type: cell-based; settings: SKBR3 (PI3Kα wild type) cells, CellTiter-Glo, approximately 72 hours, read-out: SKBR3 (WT) Viability IC50
Summary of the method: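 Viability measured via CTG luminescence following roughly 72 hours of compound exposure at 37° C. Dosing used a 10 um starting concentration diluted 1:4 over 10 points; percent-of-vehicle data fitted with a variable-slope four-parameter model for IC50.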

SMILES | IC50 ([1]; Homo sapiens, T47D, 72 h) [nM] | IC50 ([2]; Homo sapiens, SK-BR-3, 72 h) [nM] | IC50 [1] [nM] | IC50 [2] [nM]
Cc1cc([C@@H](C)Nc2ccccc2C(=O)O)c2nc(N3C4CC3CN(c3ccc(C#N)cc3)C4)c(C#N)c(=O)n2c1 [Example 11-179, 2-(((1R)-1-(3-cyano-2-(3-(4-cyanophenyl)-3,6-diazabicyclo[3.1.1]heptan-6-yl)-7-methyl-4-oxo-4H-pyrido[1,2-a]pyrimidin-9-yl)ethyl)amino)benzoic acid] | 1530 | > 10000 |  | 
Cc1cc([C@@H](C)Nc2ccccc2C(=O)O)c2nc(N3C4CNCC3C4)c(C)c(=O)n2c1 [Example 11-180, 2-(((1R)-1-(2-(3,6-diazabicyclo[3.1.1]heptan-6-yl)-3,7-dimethyl-4-oxo-4H-pyrido[1,2-a]pyrimidin-9-yl)ethyl)amino)benzoic acid] | > 10000 | > 10000 |  | 
Cc1cc([C@@H](C)Nc2ccccc2C(=O)O)c2nc(N3C4CC3CN(c3ccc(C#N)cc3)C4)c(C)c(=O)n2c1 [Example 11-181, 2-(((1R)-1-(2-(3-(4-cyanophenyl)-3,6-diazabicyclo[3.1.1]heptan-6-yl)-3,7-dimethyl-4-oxo-4H-pyrido[1,2-a]pyrimidin-9-yl)ethyl)amino)benzoic acid] | > 10000 | > 10000 |  | 
Cc1cc([C@@H](C)Nc2ccccc2C(=O)O)c2nc(N3C4CCC3CN(c3ccc(C#N)cc3)C4)c(C#N)c(=O)n2c1 [Example 11-182, 2-(((1R)-1-(3-cyano-2-(3-(4-cyanophenyl)-3,8-diazabicyclo[3.2.1]octan-8-yl)-7-methyl-4-oxo-4H-pyrido[1,2-a]pyrimidin-9-yl)ethyl)amino)benzoic acid] | 238 | > 10000 |  | 
Cc1cc([C@@H](C)Nc2ccccc2C(=O)O)c2nc(N3C4CCC3CN(c3ccc(C#N)cc3)C4)c(C)c(=O)n2c1 [Example 11-183, 2-(((1R)-1-(2-(3-(4-cyanophenyl)-3,8-diazabicyclo[3.2.1]octan-8-yl)-3,7-dimethyl-4-oxo-4H-pyrido[1,2-a]pyrimidin-9-yl)ethyl)amino)benzoic acid] | 197 | > 10000 |  | 
Cc1cc([C@@H](C)Nc2ccccc2C(=O)O)c2nc(N3CCN(c4cn(C)nc4C#N)CC3)c(C#N)c(=O)n2c1 [Example 11-184, (R)-2-((1-(3-cyano-2-(4-(3-cyano-1-methyl-1H-pyrazol-4-yl)piperazin-1-yl)-7-methyl-4-oxo-4H-pyrido[1,2-a]pyrimidin-9-yl)ethyl)amino)benzoic acid] | 370 | > 10000 |  | 
Cc1cc([C@@H](C)Nc2ccccc2C(=O)O)c2nc(N3CCN(c4cn(C)nc4C#N)CC3)c(C)c(=O)n2c1 [Example 11-185, (R)-2-((1-(2-(4-(3-cyano-1-methyl-1H-pyrazol-4-yl)piperazin-1-yl)-3,7-dimethyl-4-oxo-4H-pyrido[1,2-a]pyrimidin-9-yl)ethyl)amino)benzoic acid] | 123 | > 10000 |  | 
Cc1cc([C@@H](C)Nc2ccccc2C(=O)O)c2nc(N3CCN(C4CCOCC4)CC3)c(C#N)c(=O)n2c1 [Example 11-186, (R)-2-((1-(3-cyano-7-methyl-4-oxo-2-(4-(tetrahydro-2H-pyran-4-yl)piperazin-1-yl)-4H-pyrido[1,2-a]pyrimidin-9-yl)ethyl)amino)benzoic acid] | 606 | > 10000 |  | 
Cc1cc([C@@H](C)Nc2ccccc2C(=O)O)c2nc(N3CCN(C4CCOCC4)CC3)c(C)c(=O)n2c1 [Example 11-187, (R)-2-((1-(3,7-dimethyl-4-oxo-2-(4-(tetrahydro-2H-pyran-4-yl)piperazin-1-yl)-4H-pyrido[1,2-a]pyrimidin-9-yl)ethyl)amino)benzoic acid] | 406 | > 10000 |  | 
Cc1cc([C@@H](C)Nc2ccccc2C(=O)O)c2nc(N3Cc4cc(F)c(F)cc4C3)c(C)c(=O)n2c1 [Example 11-188, (R)-2-((1-(2-(5,6-difluoroisoindolin-2-yl)-3,7-dimethyl-4-oxo-4H-pyrido[1,2-a]pyrimidin-9-yl)ethyl)amino)benzoic acid] |  |  | 152 | > 10000
Cc1cc([C@@H](C)Nc2ccccc2C(=O)O)c2nc(N3C4CCC3CC(F)(F)C4)c(C)c(=O)n2c1 [Example 11-189, 2-(((1R)-1-(2-(3,3-difluoro-8-azabicyclo[3.2.1]octan-8-yl)-3,7-dimethyl-4-oxo-4H-pyrido[1,2-a]pyrimidin-9-yl)ethyl)amino)benzoic acid] | 261 | > 10000 |  | 
Cc1cc([C@@H](C)Nc2ccccc2C(=O)O)c2nc(N3CC4(CN(c5ccc(C#N)cc5)C4)C3)c(C#N)c(=O)n2c1 [Example 11-190, (R)-2-((1-(3-cyano-2-(6-(4-cyanophenyl)-2,6-diazaspiro[3.3]heptan-2-yl)-7-methyl-4-oxo-4H-pyrido[1,2-a]pyrimidin-9-yl)ethyl)amino)benzoic acid] | 1110 | > 10000 |  | 
Cc1cc([C@@H](C)Nc2ccccc2C(=O)O)c2nc(N3CC4(CN(c5ccc(C#N)cc5)C4)C3)c(C)c(=O)n2c1 [Example 11-191, (R)-2-((1-(2-(6-(4-cyanophenyl)-2,6-diazaspiro[3.3]heptan-2-yl)-3,7-dimethyl-4-oxo-4H-pyrido[1,2-a]pyrimidin-9-yl)ethyl)amino)benzoic acid] | 1060 | > 10000 |  | 
Cc1cc([C@@H](C)Nc2ccccc2C(=O)O)c2nc(NC[C@@H]3CCOC3)c(C#N)c(=O)n2c1 [Example 11-192, 2-(((R)-1-(3-cyano-7-methyl-4-oxo-2-((((S)-tetrahydrofuran-3-yl)methyl)amino)-4H-pyrido[1,2-a]pyrimidin-9-yl)ethyl)amino)benzoic acid] | 2440 | > 10000 |  | 
Cc1cc([C@@H](C)Nc2ccccc2C(=O)O)c2nc(NC[C@H]3CCOC3)c(C#N)c(=O)n2c1 [Example 11-193, 2-(((R)-1-(3-cyano-7-methyl-4-oxo-2-((((R)-tetrahydrofuran-3-yl)methyl)amino)-4H-pyrido[1,2-a]pyrimidin-9-yl)ethyl)amino)benzoic acid] | 1200 | > 10000 |  | 
Cc1cc([C@@H](C)Nc2ccccc2C(=O)O)c2nc(NCC3CCOC3)c(C#N)c(=O)n2c1 (stereo partly drawn) [Example 11-194, 2-(((1R)-1-(3-cyano-7-methyl-4-oxo-2-(((tetrahydrofuran-3-yl)methyl)amino)-4H-pyrido[1,2-a]pyrimidin-9-yl)ethyl)amino)benzoic acid] | 590 | > 10000 |  | 
Cc1cc([C@@H](C)Nc2ccccc2C(=O)O)c2nc(NC[C@@H]3CCOC3)c(C)c(=O)n2c1 [Example 11-195, 2-(((R)-1-(3,7-dimethyl-4-oxo-2-((((S)-tetrahydrofuran-3-yl)methyl)amino)-4H-pyrido[1,2-a]pyrimidin-9-yl)ethyl)amino)benzoic acid] | 383 | > 10000 |  | 
Cc1cc([C@@H](C)Nc2ccccc2C(=O)O)c2nc(NC[C@H]3CCOC3)c(C)c(=O)n2c1 [Example 11-196, 2-(((R)-1-(3,7-dimethyl-4-oxo-2-((((R)-tetrahydrofuran-3-yl)methyl)amino)-4H-pyrido[1,2-a]pyrimidin-9-yl)ethyl)amino)benzoic acid] | 646 | > 10000 |  | 
Cc1cc([C@@H](C)Nc2ccccc2C(=O)O)c2nc(NCC3CCOC3)c(C)c(=O)n2c1 (stereo partly drawn) [Example 11-197, 2-(((1R)-1-(3,7-dimethyl-4-oxo-2-(((tetrahydrofuran-3-yl)methyl)amino)-4H-pyrido[1,2-a]pyrimidin-9-yl)ethyl)amino)benzoic acid] | 1290 | > 10000 |  | 
